The record followed here is patent US20060276385A1, “Anti-inflammatory agents and methods of their use” (priority 2003, published 2006).

For assay [1], the system named is ICAM-1. Description: ICAM-1 surface expression by FACS analysis in HAEC. The class given is cell-based, human. The procedure:
(§1) Endothelial cells: Mouse aortic endothelial cells (MAEC) were cultured and used at passages 4-8 as described (Cai, H., et al. (2002) J Bio Chem 107, 48311-48317). Human aortic endothelial cells (HAEC) purchased from Clonetics were cultured using EGM-2 bullet kit (Clonetics) and used at passages 4-8. Alternatively, endothelial cells obtained from the thoracic aortas of C57/BL6 control (MAE-wt) and p47^phox-null mice (MAE-p47^−/−) were isolated and cultured as described previously (Hwang, J. et al. (2003) J Biol Chem 278:47291-8), and used between passages 4-10.
(§2) Shear stress studies: Confluent endothelial monolayers grown in 100 mm tissue culture dishes were exposed to an arterial level of uni-directional LS (15 dyn/cm^2) in the growth medium by rotating a Teflon cone (0.5° cone angle) as described previously. To mimic unstable shear conditions in vivo, endothelial cells were exposed to OS with directional changes of flow at 1 Hz cycle (±5 dyn/cm^2) by rotating the cone back-and-forth using a stepping motor (Servo Motor) and a computer program (DC Motor Company, Atlanta, Ga.). In some studies, 5 dyn/cm^2 unidirectional LS was used for comparison to OS (±5 dyn/cm^2).
(§3) Fluorescence activated cytometry sorting (FACS) analysis: Treated cells were dissociated into single cell suspensions using 0.25% trypsin-EDTA and resuspended in a FACS buffer (Hank's buffered solution containing 5% FBS). Aliquots of cell suspensions were incubated with ICAM-1 antibody (R&D Systems) for 20 min on ice, washed twice with FACS buffer, and incubated with secondary antibody (fluorescein-5-isothiocyanate- or phycoerytherin-conjugated, Chemicon) for 20 min on ice in the dark. Then samples were washed again, fixed in 1% paraformaldehyde and analyzed by FACS (Calibur, Becton-Dickinson) using CellQuest software. The fluorescence intensity of ICAM-1 and forward cell scattering of 30,000 cells were measured and the geometric means calculated from histograms were shown. In some studies, HAEC were transfected with either BMP4 cloned in a bi-cistronic pAdTrack CMV vector or an empty vector, both expressing green fluorescent protein (GFP), using Lipofectamine 2000. In these experiments, ICAM-1 expression was measured in the red phycoerytherin channel, while the green channel was used to monitor the […] expression-GFP expression was determined by FACS analysis and fluorescence microscopy (20-30% transfection efficiency). Because expression of GFP was similar among different treatment groups within the same experiment, it was unnecessary to normalize ICAM-1 expression data to GFP level. Human recombinant noggin was purchased from R&D Systems and used in all experiments at 50 ng/ml (Dale, L., and Jones, C. M. (1999) Bioessays 21, 751-760; Zimmerman, L. B., et al. (1996) Cell 86, 599-606; Brunei, L. J., et al. (1998) Science 280, 1455-1457).

Assay [2] deals with VCAM-1. In words: VCAM-1 expression in endothelial cells. The class given is cell-based, human. As for the experimental part: as §3
HAEC treated with OS, BMP4 or static condition were analyzed by FACS using antibodies specific to VCAM-1 (C) and E-selectin (D) as described in panel A using TNFa (1OOU/ml, for 2 hr) as a positive control.

The test system of assay [3] is MAEC. In words: Monocyte adhesion: THP-1 monocytes bound to mouse aortic endothelial cells. Format: cell-based. As for the experimental part:
as §1, §2
(§4) Monocyte Adhesion: Monocyte binding was determined under no-flow conditions using THP-1 monocytes (ATCC) by the method described by Chappel et al (Chappell, D. C., et al. (1998) Circ Res 82, 532-539). Briefly, THP-1 cells (5×10^5 cells/ml) were labeled with a fluorescent dye 2′,7′-bis(carboxyethyl)-5(6)-carboxyfluorescein-AM (BCECF, Molecular Probes) (1 mg/ml) in serum-free RPMI medium for 45 min at 37° C. Following exposure to shear stress or BMP treatments in the presence or absence of noggin or vehicle, the endothelial cells were washed in RPMI medium before adding BCECF-loaded THP-1 cells (1:1 ratio). After a 30 min incubation at 37° C. under no-flow conditions, unbound monocytes were removed by washing the endothelial dishes 5 times with Hank's PBS. Bound monocytes were quantified by either counting the cells under a fluorescent microscope or by measuring the fluorescent intensity of cell lysates by fluorescence spectrophotometry using a plate reader. […] Some studies were performed with MAEC pretreated with 5 μg/ml of mouse-ICAM1 antibody (YN1, Southern Biolechonology) (Kevil, C. G., et al. (2001) Am J Physiol Cell Physiol 281, C1442-1447).
In FIG. 7B, confluent MAE-wt cells were pre-incubated with cell-permeable PEG-catalase (Catalase, 100 U/ml for 18 hrs) or Tiron (10 μmol/L for 1 hr). Cells were then incubated with 20 ng/ml BMP4 or vehicle for additional 18 hrs. The treated cells in 7A and 7B were washed, and fluorescently-labeled THP-1 monocytes were added. Unbound THP-1 cells were washed after 30 min, and bound monocytes were counted with a fluorescence microscope using a 10× objective (5-10 different fields per dish). […] As a positive control, monocyte binding was determined using MAE-wt treated with TNF-α(100 U/ml for 2hrs).

In assay [4] the test system is MAE-p47−/− cells. In words: Monocyte adhesion to p47phox-null endothelial cells, with or without p47phox transfection. Format: cell-based, mouse. As to conditions: 18 hrs. The procedure: as §1, §4
Transfection of p47phox: In some studies MAE-p47^−/− cells were trasnfected withp47phox expression vector or an empty vector as described (Hwang, J. et al. (2003) J Biol Chem278-47291-8).
Next, monocyte adhesion was determined in these cells. […] After 18 hrs, cells were washed and monocyte binding was determined as described in FIG. 7. […]

On to BMP4, for which, in assay [1] (HAEC transfected with BMP4 vector (Lipofectamine)), the “ICAM-1 expression above vector control cells” value is given as 3 to 4 fold. Besides, the “ICAM-1 expression above empty vector control” value in assay [1] (HAEC, BMP4 overexpression (transfection)) worked out at 84%. The “effect on VCAM-1” value in assay [2] (FIG. 5E study, p>0.05, n=3) is “marginal at best and not significant”. Also, in assay [2] (HAEC, FACS, TNF-α 100 U/ml for 2 hr as positive control), the “effect on surface expression of VCAM-1” value is listed as “neither OS nor BMP4 had any effect”. Besides, the “monocyte adhesion above vehicle control” value in assay [3] (MAE-wt cells, BMP4 20 ng/ml, 18 hrs) is reported as 5 to 6 fold. Further, the “effect on LS inhibition of monocyte adhesion” value in assay [3] (MAEC sheared (LS) 24 hrs in medium supplemented with BMP4) was “inhibitory effect of LS on monocyte adhesion was lost”. The “monocyte binding, maximum activation over control” value in assay [3] (MAEC treated with increasing concentrations of BMP4 for 24 hr (overnight)) is 4 to 7 fold. For the same substance, in assay [3] (MAEC, 24 hr), the “BMP4 concentration inducing maximum effect on monocyte adhesion” value came out at 50 ng/mL and the “lowest BMP4 concentration inducing a statistically significant increase in monocyte adhesion” value turned out to be 0.1 ng/mL. The “increase in monocyte adhesion above the control” value in assay [4] (MAE-p47−/− cells transfected with p47phox (rescued), BMP4 20 ng/ml or TNF-α 100 U/ml) was 4- to 5 fold. Further, in assay [4] (MAE-p47−/− cells, BMP4 20 ng/ml), the monocyte adhesion response result is recorded as “failed to stimulate monocyte adhesion”.
